These results are taken from patent US20070167452A1, “Therapeutic amide derivatives” (PFIZER, INC., priority 2004, published 2007).

Broadly, the IC50 is the concentration that gives 50% inhibition. Low readings indicate greater potency in that assay, high ones weaker potency in that assay. As a reminder, the melting point is the temperature, or range, at which the solid turns liquid. Broadly, the Ki is a dissociation constant, usually derived from enzyme kinetics or from competition with a known ligand.

In data set [1] the target is T1, NR2B receptor (Rattus norvegicus, UniProt P35439+Q00960).
T1 construct: Membranes were prepared by homogenization of forebrain of male CD rats; from tissue; host or cells: forebrain of male CD rats (P2 membrane)
Kind of data set: NR2B Binding Assay. Conditions: for IC50: forebrain P2 membranes of male CD rats, 5 nM [3H] NR2B ligand. On the procedure:
The activity of the cycloalkylene amide compounds of the present invention, as NR2B antagonists, is determined by their ability to inhibit the binding of NR2B subunit at its receptor sites employing radioactive ligands.
The NR^2B antagonist activity of the cycloalkylene amide compounds is evaluated by using the standard assay procedure described in, for example, J. Pharmacol., 331, pp 117-126, 1997. This method essentially involves determining the concentration of the individual compound required to reduce the amount of radiolabelled NR2B ligands by 50% at their receptor sites, thereby affording characteristic IC50 values for each compound tested. More specifically, the assay is carried out as follows.
Membranes were prepared by homogenization of forebrain of male CD rats weighing between 170˜190 g by using glass-Teflon homogenizer in 0.32 M sucrose at 4° C. The crude nuclear pellet was removed by centrifugation at 1000×g for 10 min, and the supernatant centrifuged at 17000×g for 25 min. The resulting pellet was resuspended in 5 mM Tris acetate pH 7.4 at 4° C. for 10 min to lyse cellular particles and again centrifuged at 17000×g. The resulting pellet (P2 membrane) was washed twice in Tris acetate, resuspended at 5.5 mg protein/ml and stored at −20° C. until use. All the manipulation was done on ice, and stock solution and equipment were kept on ice at all time.
For the saturation assay, receptor saturation was determined by incubating [^3H]-1-[(1S*,2S*)-2-hydroxy-2-(4-hydroxyphenyl)-1-methylethyl]-4-phenylpiperidin-4-ol and 50 μg protein of P2 membrane for 60 minutes at room temperature in a final 100 μl of incubation buffer (50 mM Tris HCl, pH7.4). Total and non-specific bindings (in the presence of 10 μM of unlabeled 1-[(1S*,2S*)-2-hydroxy-2-(4-hydroxyphenyl)-1-methylethyl]-4-phenylpiperidin-4-ol) were determined in a range of [^3H]-1-[(1S*,2S*)-2-hydroxy-2-(4-hydroxyphenyl)-1-methylethyl]-4-phenylpiperidin-4-ol concentrations (0.625 nM to 60 nM).
For the competition assay, test compounds were incubated in duplicate with 5 nM [^3H]-1-[(1S*,2S*)-2-hydroxy-2-(4-hydroxyphenyl)-1-methylethyl]-4-phenylpiperidin-4-ol and 50 μg protein of P2 membrane for 60 minutes at room temperature in a final 100 μl of 50 mM Tris HCl buffer (pH7.4). Nonspecific binding was determined by 10 μM of unlabeled 1-[(1S*,2S*)-2-hydroxy-2-(4-hydroxyphenyl)-1-methylethyl]-4-phenylpiperidin-4-ol (25 μl). The saturation derived KD gained in saturation assay was used for all Ki calculations.
All incubations were terminated by rapid vacuum filtration over 0.2% polyethyleneimine soaked Whatman GF/B glass fibre filter paper using a SKATRON cell harvester followed by three washes with ice-cold filtration buffer (5 mM Tris HCl, pH 7.4.). Receptor-bound radioactivity was quantified by liquid scintillation counting using Packard LS counter. Competition assays were performed by counting Wallac GF/B filters on Betaplate scintillation counter (Wallac).

Data set [2] concerns the target Human HERG (Homo sapiens, UniProt Q12809). The experiment in a line: Human Dofetilide Binding Assay.
Experimental: Human HERG transfected HEK293S cells were prepared and grown in-house. The collected cells were suspended in 50 mM Tris-HCl (pH 7.4 at 4° C.) and homogenized using a hand held Polytron PT 1200 disruptor set at full power for 20 sec on ice. The homogenates were centrifuged at 48,000×g at 4° C. for 20 min. The pellets were then resuspended, homogenized, and centrifuged once more in the same manner. The final pellets were resuspended in an appropriate volume of 50 mM Tris-HCl, 10 mM KCl, 1 mM MgCl2 (pH 7.4 at 4° C.), homogenized, aliquoted and stored at −80° C. until use. An aliquot of membrane fractions was used for protein concentration determination using BCA protein assay kit (PIERCE) and ARVOsx plate reader (Wallac).
Binding assays were conducted in a total volume of 200 μl in 96-well plates. Twenty μl of test compounds were incubated with 20 μl of [^3H]-dofetilide (Amersham, final 5 nM) and 160 μl of membrane homogenate (25 μg protein) for 60 minutes at room temperature. Nonspecific binding was determined by 10 μM dofetilide at the final concentration. Incubation was terminated by rapid vacuum filtration over 0.5% presoaked GF/B Betaplate filter using Skatron cell harvester with 50 mM Tris-HCl, 10 mM KCl, 1 mM MgCl2, pH 7.4 at 4° C. The filters were dried, put into sample bags and filled with Betaplate Scint. Radioactivity bound to filter was counted with Wallac Betaplate counter.

Structures are written as SMILES. Some results are limits rather than exact numbers.

Human HERG, sequence (Q12809 whole entry): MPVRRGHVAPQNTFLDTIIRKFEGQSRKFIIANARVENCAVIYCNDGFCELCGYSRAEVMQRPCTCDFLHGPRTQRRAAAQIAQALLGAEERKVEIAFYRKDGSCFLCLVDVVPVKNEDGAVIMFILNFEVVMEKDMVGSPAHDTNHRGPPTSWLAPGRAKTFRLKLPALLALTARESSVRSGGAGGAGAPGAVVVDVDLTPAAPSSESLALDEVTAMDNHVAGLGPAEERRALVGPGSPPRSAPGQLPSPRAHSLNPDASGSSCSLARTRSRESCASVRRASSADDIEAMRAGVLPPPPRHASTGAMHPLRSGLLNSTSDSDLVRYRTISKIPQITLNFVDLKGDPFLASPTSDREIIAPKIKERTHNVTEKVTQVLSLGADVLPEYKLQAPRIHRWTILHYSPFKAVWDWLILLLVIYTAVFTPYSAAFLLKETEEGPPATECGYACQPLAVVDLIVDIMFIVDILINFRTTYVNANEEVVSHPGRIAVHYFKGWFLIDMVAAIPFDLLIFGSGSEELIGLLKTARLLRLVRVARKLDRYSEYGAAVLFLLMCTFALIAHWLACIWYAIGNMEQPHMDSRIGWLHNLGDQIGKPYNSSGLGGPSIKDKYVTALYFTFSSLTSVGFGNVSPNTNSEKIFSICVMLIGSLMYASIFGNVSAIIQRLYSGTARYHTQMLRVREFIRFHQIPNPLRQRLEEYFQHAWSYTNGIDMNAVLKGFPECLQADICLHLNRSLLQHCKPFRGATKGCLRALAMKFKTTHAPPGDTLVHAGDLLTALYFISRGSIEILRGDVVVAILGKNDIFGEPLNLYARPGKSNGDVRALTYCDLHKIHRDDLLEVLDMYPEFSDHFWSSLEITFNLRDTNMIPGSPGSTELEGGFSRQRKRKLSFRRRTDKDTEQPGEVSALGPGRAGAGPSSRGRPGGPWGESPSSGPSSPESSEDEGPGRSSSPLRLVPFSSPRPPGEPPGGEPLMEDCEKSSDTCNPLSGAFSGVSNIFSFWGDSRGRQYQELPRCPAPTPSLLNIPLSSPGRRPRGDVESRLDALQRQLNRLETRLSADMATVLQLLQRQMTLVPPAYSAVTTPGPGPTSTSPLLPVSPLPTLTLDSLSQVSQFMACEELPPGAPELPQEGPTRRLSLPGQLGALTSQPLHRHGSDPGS
T1 sequence (Q00960 27-1482, other chains not shown): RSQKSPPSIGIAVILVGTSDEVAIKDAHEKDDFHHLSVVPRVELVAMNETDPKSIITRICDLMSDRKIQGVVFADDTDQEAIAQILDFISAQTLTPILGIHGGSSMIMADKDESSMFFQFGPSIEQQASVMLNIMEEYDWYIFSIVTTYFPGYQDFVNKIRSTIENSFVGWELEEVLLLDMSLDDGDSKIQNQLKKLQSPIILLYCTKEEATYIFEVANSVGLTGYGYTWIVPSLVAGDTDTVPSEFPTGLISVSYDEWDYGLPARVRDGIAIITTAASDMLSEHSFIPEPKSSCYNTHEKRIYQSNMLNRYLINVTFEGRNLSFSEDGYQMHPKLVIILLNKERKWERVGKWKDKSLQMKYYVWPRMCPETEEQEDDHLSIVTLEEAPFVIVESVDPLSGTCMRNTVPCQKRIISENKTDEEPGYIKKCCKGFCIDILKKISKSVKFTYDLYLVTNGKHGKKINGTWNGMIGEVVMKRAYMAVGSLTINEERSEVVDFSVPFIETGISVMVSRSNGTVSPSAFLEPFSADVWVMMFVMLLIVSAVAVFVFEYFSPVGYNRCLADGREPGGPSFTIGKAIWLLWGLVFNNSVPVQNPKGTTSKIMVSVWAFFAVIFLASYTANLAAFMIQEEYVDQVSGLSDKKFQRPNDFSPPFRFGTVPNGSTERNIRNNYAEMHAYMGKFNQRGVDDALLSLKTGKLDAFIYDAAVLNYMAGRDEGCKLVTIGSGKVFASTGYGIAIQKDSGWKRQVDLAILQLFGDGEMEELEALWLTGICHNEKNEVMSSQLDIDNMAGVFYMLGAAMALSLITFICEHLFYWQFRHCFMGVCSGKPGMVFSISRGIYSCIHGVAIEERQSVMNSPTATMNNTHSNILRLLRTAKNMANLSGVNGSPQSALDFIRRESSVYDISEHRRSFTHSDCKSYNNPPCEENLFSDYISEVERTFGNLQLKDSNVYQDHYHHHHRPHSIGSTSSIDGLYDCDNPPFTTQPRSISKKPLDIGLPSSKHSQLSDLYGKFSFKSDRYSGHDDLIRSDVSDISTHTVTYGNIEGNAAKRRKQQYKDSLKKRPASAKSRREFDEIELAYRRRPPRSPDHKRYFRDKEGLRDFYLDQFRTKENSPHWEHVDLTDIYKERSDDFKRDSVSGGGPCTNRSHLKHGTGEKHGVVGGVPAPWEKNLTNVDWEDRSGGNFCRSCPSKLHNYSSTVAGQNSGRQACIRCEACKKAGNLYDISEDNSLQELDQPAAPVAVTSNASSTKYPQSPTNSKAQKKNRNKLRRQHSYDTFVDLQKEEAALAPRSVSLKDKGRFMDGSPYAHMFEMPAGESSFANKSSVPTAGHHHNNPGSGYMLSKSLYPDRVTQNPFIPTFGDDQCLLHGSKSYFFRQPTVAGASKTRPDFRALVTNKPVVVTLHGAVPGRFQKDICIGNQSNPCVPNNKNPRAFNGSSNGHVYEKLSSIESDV

`O=C(NC[C@]1(O)CC[C@H](COCc2ccccc2)CC1)c1ccc(O)cc1` [Example 21, N-({trans-4-[(Benzyloxy)methyl]-1-hydroxycyclohexyl}methyl)-4-hydroxybenzamide] displayed a melting point of 165.7 °C. The IC50 in data set [1] was 11.4 nM. For the same molecule, the IC50 in data set [2] is above 100000 nM.
In the same order, the values of `O=C(NC[C@]1(O)CC[C@H](OCc2ccccc2F)CC1)c1ccc(O)cc1` [Example 48, N-({trans-4-[(2-Fluorobenzyl)oxy]-1-hydroxycyclohexyl}methyl)-4-hydroxybenzamide] are 162.9 °C, 25.5 nM and above 100000 nM.
On the same counts, the results for `O=C(NC[C@]1(O)CC[C@H](COCc2ccc(F)cc2)CC1)c1ccc(O)cc1` [Example 24, N-[(trans-4-{[(4-Fluorobenzyl)oxy]methyl}-1-hydroxycyclohexyl)methyl]-4-hydroxybenzamide] are 167.6 °C, 21.8 nM and 97000 nM.
With `O=C(NC[C@]1(O)CC[C@H](COc2ccc(F)cc2)CC1)c1ccc(O)c(F)c1` [Example 66, 3-Fluoro-N-({trans-4-[(4-fluorophenoxy)methyl]-1-hydroxycyclohexyl}methyl)-4-hydroxybenzamide], the melting point turned out to be 181.6 °C. For the same molecule, the IC50 in data set [1] is 12.6 nM. In data set [2], this molecule gave an IC50 above 100000 nM.
For the molecule `O=C(NC[C@]1(O)CC[C@H](COc2ccccc2)CC1)c1ccc(O)c(F)c1` [Example 62, 3-Fluoro-4-hydroxy-N-{[trans-1-hydroxy-4-(phenoxymethyl)cyclohexyl]methyl}benzamide], the melting point came out at 183.5 °C. The IC50 in data set [1] was determined as 9.1 nM. This molecule came in with an IC50 in data set [2] above 30000 nM.
In the same order, the values of `O=C(NC[C@]1(O)CC[C@H](COCc2ccccc2F)CC1)c1ccc(O)cc1` [Example 22, N-[(trans-4-{[(2-Fluorobenzyl)oxy]methyl}-1-hydroxycyclohexyl)methyl]-4-hydroxybenzamide] are 174.3 °C, 11 nM and above 100000 nM.
In the same order, the values of `O=C(NC[C@H]1CC[C@@H](COc2ccccc2)CC1)c1cn[nH]c1` [Example 73, N-{[cis-4-(Phenoxymethyl)cyclohexyl]methyl}-1H-pyrazole-4-carboxamide] are 150.1 °C, 15.4 nM and above 30000 nM.
In the same order, the values of `Cc1ccc(OC[C@H]2CC[C@@](O)(CNC(=O)c3ccc(O)cc3)CC2)cc1` [Example 19, 4-Hydroxy-N-({trans-1-hydroxy-4-[(4-methylphenoxy)methyl]cyclohexyl}methyl)benzamide] are 203.1 °C, 7.7 nM and above 100000 nM.
In turn, `O=C(NC[C@]1(O)CC[C@H](COCc2ccccc2)CC1)c1ccc(O)c(F)c1` [Example 60, N-({trans-4-[(Benzyloxy)methyl]-1-hydroxycyclohexyl}methyl)-3-fluoro-4-hydoxybenzamide] gave a melting point of 162.5 °C. In data set [1], the IC50 stood at 18.2 nM. This molecule also displayed an IC50 in data set [2] above 100000 nM.
On the same counts, the results for `O=C(NC[C@]1(O)CC[C@H](COc2ccc(Cl)cc2)CC1)c1ccc(O)cc1` [Example 16, N-({trans-4-[(4-Chlorophenoxy)methyl]-1-hydroxycyclohexyl}methyl)-4-hydroxybenzamide] are 208.2 °C, 19.8 nM and above 100000 nM.
With `O=C(NC[C@]1(O)CC[C@H](COc2cccc(F)c2)CC1)c1ccc(O)cc1` [Example 10, N-({trans-4-[(3-Fluorophenoxy)methyl]-1-hydroxycyclohexyl}methyl)-4-hydroxybenzamide], the melting point came out at 186 °C. Also, the concentration for half-maximal inhibition (IC50) in data set [1] came to 12 nM. The IC50 in data set [2] amounted to 25800 nM.
Consider `Cc1ccccc1OC[C@H]1CC[C@@](O)(CNC(=O)c2ccc(O)cc2)CC1` [Example 17, 4-Hydroxy-N-({trans-1-hydroxy-4-[(2-methylphenoxy)methyl]cyclohexyl}methyl)benzamide], for which the melting point was determined as 189.1 °C. The molecule further had an IC50 in data set [1] of 23.4 nM. In addition, the IC50 in data set [2] is above 100000 nM.
In the same order, the values of `O=C(NC[C@]1(O)CC[C@H](CCOc2ccccc2)CC1)c1ccc(O)c(F)c1` [Example 63, 3-Fluoro-4-hydroxy-N-{[trans-1-hydroxy-4-(2-phenoxyethyl)cyclohexyl]methyl}benzamide] are 164 °C, 6.2 nM and above 30000 nM.
In turn, `O=C(NC[C@]1(O)CC[C@H](COc2cc(F)cc(F)c2)CC1)c1ccc(O)cc1` [Example 13, N-({trans-4-[(3,5-Difluorophenoxy)methyl]-1-hydroxycyclohexyl}methyl)-4-hydroxybenzamide] yielded a melting point of 102.4 °C. Moreover, in data set [1], the IC50 turned out to be 30 nM. The molecule also displayed an IC50 in data set [2] of 62600 nM.
On the same counts, the results for `Cc1cccc(OC[C@H]2CC[C@@](O)(CNC(=O)c3ccc(O)cc3)CC2)c1` [Example 18, 4-Hydroxy-N-({trans-1-hydroxy-4-[(3-methylphenoxy)methyl]cyclohexyl}methyl)benzamide] are 201.4 °C, 15.2 nM and above 100000 nM.
On to `O=C(NC[C@]1(O)CC[C@@H](Oc2ccc(Cl)cc2)CC1)c1ccc(O)c(F)c1` [Example 34, N-{[cis-4-(4-Chlorophenoxy)-1-hydroxycyclohexyl]methyl}-3-fluoro-4-hydroxybenzamide], for which the melting point stood at 168.1 °C. Also, in data set [1], the IC50 was found to be 14.7 nM. Further, the IC50 in data set [2] is above 30000 nM.
Regarding `O=C(NC[C@]1(O)CC[C@H](COc2ccccc2F)CC1)c1ccc(O)cc1` [Example 11, N-({trans-4-[(2-Fluorophenoxy)methyl]-1-hydroxycyclohexyl}methyl)-4-hydroxybenzamide], the melting point amounted to 185 °C. The Ki in data set [1] (competition assay, rat forebrain P2 membranes, read-out: Ki value, binding affinity for the NR2B receptor) was 6.2 nM. Besides, the IC50 in data set [1] was determined as 8.5 nM. The same molecule gave an IC50 in data set [2] above 100000 nM.
With `O=C(NC[C@]1(O)CC[C@H](COCc2ccc(F)cc2)CC1)c1ccc(O)c(F)c1` [Example 64, 3-Fluoro-N-[(trans-4-{[(4-fluorobenzyl)oxy]methyl}-1-hydroxycyclohexyl)methyl]-4-hydroxybenzamide], the melting point is 155.9 °C. The same molecule gave an IC50 in data set [1] of 26.5 nM. The same molecule gave an IC50 in data set [2] above 100000 nM.
Turning to `O=C(NC[C@H]1CC[C@@H](CCOc2ccc(F)cc2)CO1)c1cn[nH]c1` [Example 113, N-({(2R,5S)-5-[2-(4-Fluorophenoxy)ethyl]tetrahydro-2H-pyran-2-yl}methyl)-1H-pyrazole-4-carboxamide], the figures for the IC50 in data set [1] and in data set [2] were 6.5 nM and above 100000 nM, respectively.
With `O=C(NC[C@]1(O)CC[C@H](OCc2ccccc2)CC1)c1ccc(O)cc1` [Example 30, N-{[trans-4-(Benzyloxy)-1-hydroxycyclohexyl]methyl}-4-hydroxybenzamide], the IC50 in data set [1] is 23.6 nM; in data set [2] it was above 100000 nM.
In the case of `O=C(NC[C@H]1CC[C@@H](OCCOc2ccc(F)cc2)CC1)c1ccc(O)nc1` [Example 95], the IC50 is 4 nM in data set [1] and above 100000 nM in data set [2].
`O=C(NC[C@@H]1CCC[C@H](OCCc2ccccc2)C1)c1cn[nH]c1` (single isomer, unassigned) [Example 116]: the IC50 was 25.9 nM in data set [1] and above 100000 nM in data set [2].
As for `Nc1n[nH]cc1C(=O)NC[C@H]1CC[C@@H](COc2ccc(Cl)cc2)CO1` [Example 125, 3-Amino-N-({(2R,5R)-5-[(4-chlorophenoxy)methyl]tetrahydro-2H-pyran-2-yl}methyl)-1H-pyrazole-4-carboxamide], the IC50 in data set [1] is 12.5 nM; in data set [2], above 30000 nM.
